Reference: patent publication US12453776B2, “Lipids and compositions for the delivery of therapeutics” (ARBUTUS BIOPHARMA CORPORATION, priority 2008, dated 2025)

Tested on: Factor VII
Test: In vivo FVII knockdown by FVII siRNA lipid formulations (chromogenic Factor VII assay, serum 24 h after i.v. dosing)
Conditions: female C57Bl/6 mice, i.v. tail vein, cationic lipid/DSPC/cholesterol/PEG-lipid 40/10/40/10 with FVII siRNA, no unit at the values, method gives ED50 in mg/kg
Protocol: Cationic lipid containing particles were made using the preformed vesicle method. Cationic lipid, DSPC, cholesterol and PEG-lipid were solubilised in ethanol at a molar ratio of 40/10/40/10, respectively. The lipid mixture was added to an aqueous buffer (50 mM citrate, pH 4) with mixing to a final ethanol and lipid concentration of 30% (vol/vol) and 6.1 mg/mL respectively and allowed to equilibrate at room temperature for 2 min before extrusion. The hydrated lipids were extruded through two stacked 80 nm pore-sized filters (Nuclepore) at 22° C. using a Lipex Extruder (Northern Lipids, Vancouver, BC) until a vesicle diameter of 70-90 nm, as determined by Nicomp analysis, was obtained. This generally required 1-3 passes.
The FVII siRNA (solubilised in a 50 mM citrate, pH 4 aqueous solution containing 30% ethanol) was added to the vesicles, pre-equilibrated to 35° C., at a rate of ˜5 mL/min with mixing. […] The final encapsulated siRNA-to-lipid ratio was determined after removal of unencapsulated siRNA using size-exclusion spin columns or ion exchange spin columns.
Test formulations were initially assessed for their FVII knockdown in female 7-9 week old, 15-25 g, female C57Bl/6 mice at 0.1, 0.3, 1.0 and 5.0 mg/kg with 3 mice per treatment group. […] Mice were weighed and the appropriate dosing volumes calculated (10 μl/g body weight). […]

| Compound | ED50 (dose resulting in a 50% reduction in plasma FVII levels compared to control animals) [mg/kg] |
| --- | --- |
| CCCCC/C=C\C/C=C\CCCCCCCCC(CCCCCCCC/C=C\C/C=C\CCCCC)OC(=O)CCCN(CC)CC [DLin-M-C3-DEA] | 0.3 |
| CCCCC/C=C\C/C=C\CCCCCCCCC(CCCCCCCC/C=C\C/C=C\CCCCC)OC(=O)CCCN(C(C)C)C(C)C [DLin-M-C3-DIPA] | 4.5 |
